Reference: EP0993437B1, “2-(4-BROMO OR 4-IODO PHENYLAMINO) BENZOIC ACID DERIVATIVES AND THEIR USE AS MEK INHIBITORS” (Warner-Lambert Company LLC, priority 1997, dated 1999)
Structures can show the parent of a compound that is named as a salt.

Experiments:
MEK = test: Cascade assay for inhibitors of the MAP kinase pathway (In Vitro); type: biochemical
Method: Incorporation of ^32P into myelin basic protein (MBP) was assayed in the presence of a glutathione S-transferase fusion protein containing p44MAP kinase (GST-MAPK) and a glutathione S-transferase fusion protein containing p45MEK (GST-MEK). The assay solution contained 20 mM HEPES, pH 7.4, 10 mM MgCl2, 1-mM MnCl2, 1 mM EGTA, 50 µM [γ-^32P]ATP, 10 µg GST-MEK, 0.5 µg GST-MAPK and 40 µg MBP in a final volume of 100 µL. […] Compounds were assessed at 10 µM for ability to inhibit incorporation of ^32P.
To ascertain whether compounds were inhibiting GST-MEK or GST MAPK, two additional protocols were employed. In the first protocol, compounds were added to tubes containing GST-MEK, followed by addition of GST-MAPK, MBP and [γ-^32P]ATP.

MAP kinase = test: Whole cell MAP kinase assay (In Vivo, Cell Culture); type: cell-based
Method: Cells were then serum-deprived overnight. Cells were exposed to the desired concentrations of compound or vehicle (DMSO) for 30 minutes, followed by addition of a growth factor, for example, PDGF (100 ng/mL). After a 5-minute treatment with the growth factor, cells were washed with PBS, then lysed in a buffer consisting of 70 mM NaCl, 10 mM HEPES (pH 7.4), 50 mM glycerol phosphate, and 1% Triton X-100. Lysates were clarified by centrifugation at 13,000 × g for 10 minutes. Five micrograms of the resulting supernatants were incubated with 10 µg microtubule associated protein-2 (Map2) for 15 minutes at 30°C in a final volume of 25 µL containing 50 mM Tris (pH 7.4), 10 mM MgCl2, 2 mM EGTA and 30 µM [γ-^32P]ATP, Reactions were terminated by addition of Laemmli sample buffer.

Compound | IC50 (MEK) [nM] | other results
Cc1cc(I)ccc1Nc1c(C(=O)O)cc(Br)c(F)c1F [Example 4, 5-Bromo-3,4-difluoro-2-(4-iodo-2-methyl-phenylamino)-benzoic acid] | 5 | IC50 (MAP kinase): 1000 nM
Cc1cc(I)ccc1Nc1ccccc1C(=O)O [Example 19, 2-(4-Iodo-2-methyl-phenylamino)-benzoic acid] | 524 | inhibition at 30 µM (MAP kinase): 50%
Cc1cc(I)ccc1Nc1c(F)cc(C(=O)O)c(F)c1F [Example 22, 2,3 ,5 -Trifluoro-4-(4-iodo-2-methyl-phenylamino)-benzoic acid] | 1580 | inhibition at 30 µM (MAP kinase): 30%
Cc1cc(I)ccc1Nc1cccc(F)c1C(=O)O [Example 26, 2-Fluoro-6-(4-iodo-2-methyl-phenylamino)-benzoic acid] | 2610 | inhibition at 30 µM (MAP kinase): 50%
Cc1cc(I)ccc1Nc1cc([N+](=O)[O-])ccc1C(=O)O [Example 30, 2-(4-Iodo-2-methyl-phenylamino)-4-nitro-benzoic acid] |  | In Vitro % Inhibition (MEK; compounds assessed at 10 µM): 105%; IC50 (MAP kinase): 10000 nM
Cc1cc(I)ccc1Nc1ccc(Cl)cc1C(=O)NCCO [Example 187, 5-Chloro-N-(2-hydroxy-ethyl)-2-(4-iodo-2-methyl-phenylamino)-benzamide] | 561 | 
Cc1cc(I)ccc1Nc1ccc(Br)cc1C(=O)NCCO [Example 188, 5-Bromo-N-(2-hydroxy-ethyl)-2-(4-iodo-2-methyl-phenylamino)-benzamide] | 771 | 
Cc1cc(I)ccc1Nc1ccc([N+](=O)[O-])cc1C(=O)N(C)c1ccccc1 [Example 189, 2-(4-Iodo-2-methyl-phenylamino)-N-methyl-5-nitro-N-phenyl-benzamide] | 859 | 
Cc1cc(I)ccc1Nc1ccc(I)cc1C(=O)NCCO [Example 191, N-(2-Hydroxy-ethyl)-5-iodo-2-(4-iodo-2-methyl-phenylamino)-benzamide] | 1360 | 
C=CCNC(=O)c1cc(Cl)ccc1Nc1ccc(I)cc1C [Example 193, N-Allyl-5-chloro-2-(4-iodo-2-methyl-phenylamino)-benzamide] | 2900 | 
Cc1cc(I)ccc1Nc1ccc(F)cc1C(=O)N(C)c1ccccc1 [Example 194, 5-Fluoro-2-(4-iodo-2-methyl-phenylamino)-N-methyl-N-phenyl-benzamide] | 4950 | 
Nc1c([N+](=O)[O-])cc(C(=O)O)c(Nc2ccc(I)cc2Cl)c1F [Example 211, 4-Amino-2-(2-chloro-4-iodo-phenylamino)-3-fluoro-5-nitro-benzoic acid] | > 100 | 
O=C(O)c1cc([N+](=O)[O-])c(Nc2ccc(I)cc2Cl)c(F)c1Nc1ccc(I)cc1Cl [Example 212, 2,4-Bis-(2-chloro-4-iodo-phenylamino)-3-fluoro-5-nitro-benzoic acid] | 34 | 
Cc1cc(I)ccc1Nc1cc(F)c([N+](=O)[O-])cc1C(=O)O [Example 213, 4-Fluoro-2-(4-iodo-2-methyl-phenylamino)-5-nitro-benzoic acid] | 62 | 
O=C(O)c1ccc(F)c(F)c1Nc1c(F)cc(I)cc1F [Example 214, 2-(2,6-Difluoro-4-iodo-phenylamino)-3,4-difluoro-benzoic acid] | 303 | 
O=C(O)c1ccc([N+](=O)[O-])cc1Nc1ccc(I)cc1Cl [Example 215, 2-(2-Chloro-4-iodo-phenylamino)-4-nitro-benzoic acid] | 31 | 
O=C(O)c1ccc(F)cc1Nc1ccc(I)cc1Br [Example 217, 2-(2-Bromo-4-iodo-phenylamino)-4-fluoro-benzoic acid] | > 1000 | 
O=C(O)c1ccc(F)cc1Nc1ccc(I)cc1Cl [Example 219, 2-(2-Chloro-4-iodo-phenylamino)-4-fluoro-benzoic acid] | 108 | 
Cc1cc(I)ccc1Nc1c(C(=O)NN2CCN(C)CC2)cc(Br)c(F)c1F [Example 222, 5-Bromo-3,4-difluoro-2-(4-iodo-2-methyl-phenylamino)-N-(4-methyl-piperazin-1-yl)-benazmide] | 85 | 
Cc1cc(I)ccc1Nc1c(C(=O)NN(C)C)cc(Br)c(F)c1F [Example 223, 5-Bromo-3,4-difluoro-2-(4-iodo-2-methyl-phenylamino)-benzoic acid N',N'-dimethyl-hydrazide] | 43 | 
N-(2,3-Dihydroxy-propyl)-3,4-difluoro-2-(4-iodo-2-methyl-phenylamino)-benzamide [Example 54] | 158 | 
N-(2,3-Dihydroxy-propyl)-4-fluoro-2-(4-iodo-2-methyl-phenylamino)-benzamide [Example 57] | 399 | 

Continued by falling IC50 (MEK), values first:

IC50 (MEK) [nM] | Compound | other results
1800 | Cc1cc(I)ccc1Nc1ccc(Cl)cc1C(=O)NC1CC1 [Example 192, 5-Chloro-N-cyclopropyl-2-(4-iodo-2-methyl-phenylamino)-benzamide] | 
1370 | Cc1cc(I)ccc1Nc1ccc([N+](=O)[O-])cc1-c1nnn[nH]1 [Example 209, [4-Nitro-2-(1H-tetrazol-5-yl)phenyl]-(4-iodo-2-methyl-phenyl)-amine] | 
1220 | Cc1cc(I)ccc1Nc1ccccc1-c1nnn[nH]1 [Example 208, (4-Iodo-2-methyl-phenyl)-[2-(1H-tetrazol-5-yl)-phenyl]amine] | 
1000 | O=C(O)c1ccc(F)cc1Nc1ccc(I)cc1I [Example 216, 2-(2,4-Diiodo-phenylamino)-4-fluoro-benzoic acid] | 
921 | Cc1cc(I)ccc1Nc1ccc(Cl)cc1C(=O)N(C)c1ccccc1 [Example 190, 5-Chloro-2-(4-iodo-2-methyl-phenylamino)-N-methyl-N-phenyl-benzamide] | 
418 | Cc1cc(I)ccc1Nc1cc(F)ccc1CO [Example 49, 4-Fluoro-2-(4-iodo-2-methyl-phenylamino)-benzyl alcohol] | IC50 (MAP kinase): 3000 nM
51 | O=C(O)c1ccc(F)cc1Nc1ccc(I)cc1F [Example 218, 4-Fluoro-2-(2-fluoro-4-iodo-phenylamino)-benzoic acid] | 
28 | Cc1cc(I)ccc1Nc1cc(F)ccc1C(=O)NN [Example 224, 4-Fluoro-2-(4-iodo-2-methyl-phenylamino)-benzoic acid hydrazide] | 
14 | Cc1cc(I)ccc1Nc1c(C(=O)O)cc(F)c(F)c1F [Example 2, 3,4,5-Trifluoro-2-(4-iodo-2-methyl-phenylamino)-benzoic acid] | IC50 (MAP kinase): 3000 nM
11.1 | Cc1cc(I)ccc1Nc1c(C(=O)O)ccc(F)c1F [Example 3, 3,4-Difluoro-2-(4-iodo-2-methyl-phenylamino)-benzoic acid] | IC50 (MAP kinase): 10000 nM
2 | COC(=O)c1c(F)c(F)c(N2CCN(C)CC2)c(F)c1Nc1ccc(I)cc1C [Example 221, 2,3,5-Trifluoro-6-(4-iodo-2-methyl-phenylamino)-4-(4-methyl-piperazin-1-yl)-benzoic acid methyl ester dihydrofluoride salt] | 
